We go through 101 compounds from the RepoRT retention time repository (doi:10.1016/j.chroma.2015.11.014).

A short description of the data set: RP, Agilent ZORBAX Eclipse Plus C18, 150 × 2.1 mm, 3.5 µm, 40 °C, 0.3 mL/min, estimated dead time 1.1 min; A: water + 0.1% formic acid; B: acetonitrile + 0.1% formic acid; gradient (min/%B) 0/2 1/2 2/20 16.5/98 22/98. The note with it: stereoisomer not certain.

As for `NCC1(CC(=O)O)CCCCC1`, the LC retention time is 4.88 min.
Turning to `Cc1cn(C2CC(N=[N+]=[N-])C(CO)O2)c(=O)[nH]c1=O` (stereo unspecified), the LC retention time is 5.9 min.
`CC(C)NCC(O)c1ccc(NS(C)(=O)=O)cc1` (stereo unspecified): the LC retention time is 4.58 min.
Take `CSc1nc(N)nc2nc[nH]c12`: the LC retention time was 4.91 min.
Regarding `CCP(=O)(CC)CC`, the LC retention time is 5.15 min.
With `CC(=O)C1CCC2C3CCC4=CC(=O)CCC4(C)C3CCC12C` (stereo unspecified), the LC retention time was 13.8 min.
Take `COc1ccc2c3c1OC1C(=O)C=CC4C(C2)N(C)CCC314` (stereo unspecified): the LC retention time is 5.06 min.
Regarding `O=c1[nH]c(=O)c2[nH]cnc2[nH]1`, the LC retention time was 2.43 min.
As for `CCCCCCCCCCCC[N+](C)(C)Cc1ccccc1`, the LC retention time is 11.6 min.
On to `CCCCCCCCCCCCCCCCCC[N+](C)(C)C`, for which the LC retention time was 14 min.
Consider `CC(=O)C1(O)CCC2C3CCC4=CC(=O)CCC4(C)C3CCC21C` (stereo unspecified), for which the LC retention time is 11.8 min.
As to `CCOc1ccc(NC(C)=O)cc1`, the LC retention time is 7.62 min.
The value for `C#CC1(O)CCC2C3CCC4=CC(=O)CCC4C3CCC21CC` (stereo unspecified) was 12.1 min; that for `O=c1[nH]c(=O)c2[nH]c(=O)[nH]c2[nH]1` was 2.08 min; that for `NC(=O)N1c2ccccc2C=Cc2ccc(O)cc21` was 7.92 min.
`c1ccc(C2=NCCN2)cc1`: the LC retention time is 4.35 min.
The value for `NC(Cc1ccc(O)cc1)C(=O)O` (stereo unspecified) was 2.61 min.
For `CCOC(=O)c1cncn1C(C)c1ccccc1` (stereo unspecified) the value was 8.83 min; for `CC12CCC3C(CC=C4CC(O)CCC43C)C1CCC2=O` (stereo unspecified), 11.6 min; for `CNC(=O)ON=C(C)C(C)SC` (stereo unspecified), 7.75 min.
As to `CC(C)NC(=O)NS(=O)(=O)c1cnccc1Nc1cccc(CO)c1`, the LC retention time was 5.82 min.
`CCCCCCCCCCCCCCCC[N+](C)(C)CCCCCCCCCCCCCCCC`: the LC retention time was 18.4 min.
Take `CC(C)(C)CC(C)(C)c1ccc(O)c(-n2nc3ccccc3n2)c1`: the LC retention time was 19.6 min.
`CC(=O)Nc1ccc(S(=O)(=O)Nc2cc(C)on2)cc1`: the LC retention time was 7.41 min.
With `O=C1CC(c2ccc(O)cc2)Oc2cc(O)cc(O)c21` (stereo unspecified), the LC retention time was 9.18 min.
Take `CCCCCCCCCCCCCCCC(=O)OCC(COP(=O)([O-])OCC[N+](C)(C)C)OC(=O)CCCC(=O)O` (stereo unspecified): the LC retention time was 15.2 min.
In the case of `CN(C)[P+](On1nnc2ccccc21)(N(C)C)N(C)C`, the LC retention time was 5.97 min.
Consider `c1ccc(-c2nc3ccccc3[nH]2)cc1`, for which the LC retention time was 5.9 min.
On to `CC(C)NCC(O)COc1cccc2ccccc12` (stereo unspecified), for which the LC retention time is 7.36 min.
`CC(C)NCC(O)COc1cccc2[nH]c3ccccc3c12` (stereo unspecified): the LC retention time is 6.88 min.
For `COc1ccc(C(CN)C2(O)CCCCC2)cc1` (stereo unspecified) the value was 6.32 min; for `CCN(CC)C(=O)c1cccc(C(=O)O)c1`, 7.36 min; for `CC(C)(C)[P+](=O)C(C)(C)C`, 7.1 min.
For `c1ccc(C[P+](c2ccccc2)(c2ccccc2)c2ccccc2)cc1` the value was 8.71 min.
Regarding `NCCc1c[nH]c2ccccc12`, the LC retention time was 4.97 min.
Regarding `Cc1c(O)c(=O)n(-c2ccccc2)n1C`, the LC retention time was 6.83 min.
On to `COc1ccc(-c2coc3cc(O)ccc3c2=O)cc1`, for which the LC retention time was 10.1 min.
Consider `COc1ccccc1NC(C)=O`, for which the LC retention time is 7.37 min.
Turning to `CCNc1nc(NC(C)(C)C)[nH]c(=O)n1`, the LC retention time was 5.98 min.
As to `c1ccc(CC2=NCCN2)cc1`, the LC retention time is 4.62 min.
For `CCCCCC[N+](C)(C)Cc1ccccc1` the value was 7.46 min; for `CCCCCCCC[P+](CCCCCCCC)(CCCCCCCC)CCCCCCCC`, 16.4 min.
With `Cc1ccc(C(=O)O)cc1`, the LC retention time is 8.54 min.
For `CCOP(=S)(OCC)Oc1ccc([N+](=O)[O-])cc1` the value was 14.1 min; for `O=C(O)c1ccccc1O`, 7.89 min.
As to `COc1ccccc1Oc1c(NS(=O)(=O)c2ccc(C(C)(C)C)cc2)nc(-c2ncccn2)nc1OCCO`, the LC retention time is 12.1 min.
For the compound `CCCC[P+](c1ccccc1)(c1ccccc1)c1ccccc1`, the LC retention time was 8.85 min.
Consider `NC(=O)N1c2ccccc2C=Cc2ccccc21`, for which the LC retention time is 8.87 min.
For `CCCCC[N+](CCCCC)(CCCCC)CCCCC` the value was 11.3 min; for `O=P(Oc1ccccc1)(Oc1ccccc1)Oc1cccc(OP(=O)(Oc2ccccc2)Oc2ccccc2)c1`, 15.9 min.
Regarding `O=c1[nH]cnc2c1cnn2C1OC(CO)C(O)C1O` (stereo unspecified), the LC retention time is 4.31 min.
Turning to `COc1ccc(C(=O)c2ccc(OC)cc2O)c(O)c1`, the LC retention time was 12.7 min.
As to `CCCOc1ccc2nc(NC(=O)OC)[nH]c2c1`, the LC retention time is 6.66 min.
The value for `CC(C)NCC(O)COc1cccc2[nH]ccc12` (stereo unspecified) was 5.15 min.
Turning to `Cn1c(=O)[nH]c2ncn(C)c2c1=O`, the LC retention time was 5.06 min.
`O=c1cc(-c2ccccc2)oc2cc(O)cc(O)c12`: the LC retention time was 11 min.
`CCC1OC(=O)C(C)C(OC2CC(C)(OC)C(O)C(C)O2)C(C)C(OC2OC(C)CC(N(C)C)C2O)C(C)(OC)CC(C)C(=O)C(C)C(O)C1(C)O` (stereo unspecified): the LC retention time was 8.86 min.
The value for `c1ccc2sc(N3CCOCC3)nc2c1` was 9.36 min; that for `CNCC(CC(=O)O)CC(C)C` (stereo unspecified) was 4.84 min.
With `C#CC[P+](c1ccccc1)(c1ccccc1)c1ccccc1`, the LC retention time is 7.93 min.
With `CCCCCCCCCCC(C(=O)OC)[N+](C)(C)Cc1ccccc1` (stereo unspecified), the LC retention time is 11.2 min.
As for `CN(C)c1nc2c(ncn2C2OC(CO)C(O)C2O)c(=O)[nH]1` (stereo unspecified), the LC retention time is 4.57 min.
`COCCOC(=O)Nc1ccc(C)c(NC(=O)OCCOC)c1`: the LC retention time is 8.32 min.
With `CCCCCCOC(=O)c1ccccc1C(=O)OCCCCCC`, the LC retention time was 18.1 min.
On to `CCCCC(CC)COC(=O)C(C#N)=C(c1ccccc1)c1ccccc1` (stereo unspecified), for which the LC retention time was 17.7 min.
The value for `COC(=O)C[P+](c1ccccc1)(c1ccccc1)c1ccccc1` was 7.72 min; that for `CCC1OC(=O)C(C)C(OC2CC(C)(OC)C(O)C(C)O2)C(C)C(OC2OC(C)CC(N(C)C)C2O)C(C)(O)CC(C)CN(C)C(C)C(O)C1(C)O` (stereo unspecified) was 6.25 min; that for `COc1cc(Cc2c(N)nc(N)[nH]c2=O)cc(OC)c1OC` was 5.43 min.
The value for `C#CC1(O)CCC2C3CCC4=C(CCC(=O)C4)C3CCC21C` (stereo unspecified) was 11.1 min; that for `CC(=O)C[P+](c1ccccc1)(c1ccccc1)c1ccccc1` was 7.28 min.
With `CC(=O)Nc1ccc(OC2OC(C(=O)O)C(O)C(O)C2O)cc1` (stereo unspecified), the LC retention time was 4.58 min.
As for `CCCCCCCCCCCCCCCCN1C=CC=CC1`, the LC retention time was 13 min.
On to `CC(C)c1ccc(NC(=O)N(C)C)cc1`, for which the LC retention time is 10.3 min.
In the case of `CCCC[N+](CCCC)(CCCC)CCCC`, the LC retention time is 8.91 min.
For `CN(C)N=Nc1nc[nH]c1C(N)=O`, the LC retention time is 4.47 min.
On to `CC(=O)CCCCn1c(=O)c2c(ncn2C)n(C)c1=O`, for which the LC retention time is 6.77 min.
Turning to `COc1ccccc1-c1nc2ccccc2[nH]1`, the LC retention time is 6.22 min.
Take `CCOC(=O)CC(SP(=S)(OC)OC)C(=O)OCC` (stereo unspecified): the LC retention time is 12.9 min.
Regarding `CC(C)(C)NCC(O)COc1nsnc1N1CCOCC1` (stereo unspecified), the LC retention time is 5.51 min.
In the case of `CC(CC(C)(C)C)CP(=O)(O)CC(C)CC(C)(C)C` (stereo unspecified), the LC retention time was 14.4 min.
As for `COC(=O)Nc1cccc(N)c1C`, the LC retention time was 4.42 min.
As for `COc1cc(Cc2cnc(N)nc2N)cc(O)c1OC`, the LC retention time is 5.02 min.
Turning to `CC(C)(C(=O)O)c1ccc(C(O)CCCN2CCC(C(O)(c3ccccc3)c3ccccc3)CC2)cc1` (stereo unspecified), the LC retention time is 8.7 min.
As for `COC(=O)Nc1nc2ccc(C(=O)c3ccccc3)cc2[nH]1`, the LC retention time is 8.67 min.
In the case of `C=CC[N+](CC)(CC)Cc1ccccc1`, the LC retention time is 5.35 min.
For `CSc1nc2ccccc2s1` the value was 12.2 min; for `CN1CCC23CCCCC2C1Cc1ccc(O)cc13` (stereo unspecified), 5.97 min.
For `CCCCCCCCCCCCCCCC[N+](C)(C)CC` the value was 13 min; for `C=C1CC23CCC4C(C)(C(=O)OC5OC(CO)C(O)C(O)C5O)CCCC4(C)C2CCC1(OC1OC(CO)C(O)C(O)C1OC1OC(CO)C(O)C(O)C1O)C3` (stereo unspecified), 8.07 min; for `CCC1(C2OC(C3OC(O)(CO)C(C)CC3C)CC2C)CCC(C2(C)CCC3(CC(O)C(C)C(C(C)C(OC)C(C)C(=O)O)O3)O2)O1` (stereo unspecified), 20.4 min.
As to `CNCC1CCCCC1(O)c1cccc(OC)c1` (stereo unspecified), the LC retention time is 6.25 min.
As to `S=P(c1ccccc1)(c1ccccc1)c1ccccc1`, the LC retention time was 14.5 min.
`COP(=O)(OC)OC`: the LC retention time was 4.97 min.
As to `OCC[P+](c1ccccc1)(c1ccccc1)c1ccccc1`, the LC retention time was 7.1 min.
For the compound `COCCN(C(=O)CS(=O)(=O)O)c1c(C)cccc1C`, the LC retention time is 6.76 min.
Regarding `CCCCCCCCCCCCOC(=O)c1cc(O)c(O)c(O)c1`, the LC retention time is 16 min.
As for `CCN(CC)C(=O)c1cccc(CO)c1`, the LC retention time was 6.97 min.
As to `Nc1ncnc2c1ncn2C1CC(O)C(CO)O1` (stereo unspecified), the LC retention time was 3.4 min.
On to `C[N+](C)(C)Cc1ccccc1`, for which the LC retention time is 4.46 min.
For `CCOc1cc(CC(=O)NC(CC(C)C)c2ccccc2N2CCCCC2)ccc1C(=O)O` (stereo unspecified), the LC retention time was 10.3 min.
On to `CCCCC(CC)COP(=O)(Oc1ccccc1)Oc1ccccc1` (stereo unspecified), for which the LC retention time was 17 min.
